The structures appear in SMILES notation.

Broadly, the EC50 is the concentration at which the effect is half-maximal.

Assay [1] deals with H1975 human non-small cell lung cancer cells. The experiment in a line: MTT cell activity assay, H1975 cells. As to conditions: NCI-H1975, 72 hrs with compound, absorption at 570 nm or 490 nm. The class given is cell-based. As to the method:
(§1) H1975/HCC827: human non-small cell lung cancer cells, PBS, MTT, DMEM culture medium, pancreatin, a multichannel pipette, a vortex mixer, a microplate reader, a biosafety cabinet, a 5% CO2 cell culture incubator, a cell counter, a microscope, a thermostatic water bath, and a 96-pore plate.
(§2) 1. H1975/HCC827 cells was cleaned with PBS, digested with pancreatin, centrifuged at room temperature for 5 min at 1000 rpm, re-suspended with an appropriate amount of culture medium, and counted by a cell counting plate. The cells were inoculated to the 96-pore plate by the multichannel pipette at 1000-2000 cells/pore/100 μl, with 6 complex pores for each concentration and totally 6 concentration gradients. The basis of the number of cells: upon final test, OD570 was between 0.2-0.8 (Lambert-Beer's Law).
(§3) 2. The compounds were prepared into […] of mother liquor by using DMSO. 10 μl of mother liquor was added into 90 μl of DMSO, and the mixture was uniformly mixed by the vortex mixer and diluted in turn for 5 times to obtain DMSO stock solution. The stock solution was stored at 4° C. for standby. The stock solution was uniformly mixed again before use and then added into a complete culture medium in 1:500 to serve as working solution, and then the mixture was mixed uniformly by the vortex mixer. The working solution needs to be immediately used after prepared well to avoid precipitation after long-term storage.
(§4) 3. The 96-pore plate was cultured in the cell incubator for 24 hrs, then added with 100 μl of the working solution prepared from the compounds, and continued to be cultured together for 72 hrs.
(§5) 4. The upper-layer culture medium was removed carefully, then 100 μl of culture medium containing MTT (0.5 mg/ml) was added again, and the culture medium was placed in the incubator for 4 hrs. The culture medium was removed completely, then 100 μl of DMSO was added, and the mixture was shocked uniformly. Preparation of MTT: 1.25 g of MTT was added into 250 ml of PBS, and then the mixture was mixed uniformly and stored away from light at 4° C.
(§6) 5. The light absorption value at 570 nm or 490 nm was detected by the microplate reader. EC50 was calculated and an added value curve was drawn by Graphpad.
(In general: Formazan colour is commonly taken as a measure of viable cells.)

In assay [2] the test system is HCC827 human non-small cell lung cancer cells. As to the kind of experiment: MTT cell activity assay, HCC827 cells. The class given is cell-based. As to conditions: 72 hrs with compound, absorption at 570 nm or 490 nm. As to the method: as §1, §2, §3, §4, §5, §6

Regarding `C#Cc1cccc(Nc2ncnc3cc(OCCOC)c(OCCOC(=O)c4ccccc4OC(C)=O)cc23)c1` [Embodiment 3, 2-(4-(3-ethynylaniline)-7-(2-methoxyethoxy)quinazoline-6-oxy)ethyl-2-acetoxybenzoic acid], the figures for the EC50 in assay [1] and in assay [2] were 12.2 µM and 0.16 µM, respectively.
With `C#Cc1cccc(Nc2ncnc3cc(OCCOC(=O)Cc4c(C)n(C(=O)c5ccc(Cl)cc5)c5ccc(OC)cc45)c(OCCOC)cc23)c1` [Embodiment 14, 3-(4-(3-ethynylaniline)-6-(2-methoxyethoxy)quinazoline-7-oxy)ethyl-2-(1-(4-chlorobenzoyl)-5-methoxy-2-methyl-1H-indol-3-ene)acetic acid], the EC50 was determined as 95.8 µM in assay [1] and 0.63 µM in assay [2].
Take `C#Cc1cccc(Nc2ncnc3cc(OCCOC(=O)c4ccccc4OC(C)=O)c(OCCOC(=O)c4ccccc4OC(C)=O)cc23)c1` [Embodiment 19, 2,2′-(4-(3-ethynylaniline)quinazoline-6,7-diene)di(oxy)bis(ethyl-2,1-diene)-bis(2-acetoxylbenzoic acid)]: the 50% effective concentration (EC50) turned out to be 41.7 µM in assay [1] and 0.2 µM in assay [2].
Turning to `C#Cc1cccc(Nc2ncnc3cc(OCCOC(=O)Cc4c(C)n(C(=O)c5ccc(Cl)cc5)c5ccc(OC)cc45)c(OCCOC(=O)Cc4c(C)n(C(=O)c5ccc(Cl)cc5)c5ccc(OC)cc45)cc23)c1` [Embodiment 22, 2,2′-(4-(3-ethynylaniline)quinazoline-6,7-diene)di(oxy)bis(ethyl-2,1-diene)-bis(2-(1-(4-chlorobenzoyl)-5-methoxy-2-methyl-1H-indol-3-ene)acetic acid)], the values for the EC50 in assay [1] and in assay [2] were 55.3 µM and 3.62 µM, respectively.
Consider `C#Cc1cccc(Nc2ncnc3cc(OCCOC(=O)C4=Cc5cc(Cl)c(C(C)(C)C)cc5OC4C(F)(F)F)c(OCCOC(=O)C4=Cc5cc(Cl)c(C(C)(C)C)cc5OC4C(F)(F)F)cc23)c1` (stereo not shown) [Embodiment 21, 2,2′-(4-(3-ethynylaniline)quinazoline-6,7-diene)di(oxy)bis(ethyl-2,1-diene)-bis(7-7-tert-butyl-6-chloro-2-(trifluoromethyl)-2H-pyran-3-carboxylic acid)], for which the figures for the 50% effective concentration (EC50) in assay [1] and in assay [2] were 75.6 µM and 1.05 µM, respectively.
On to `C#Cc1cccc(Nc2ncnc3cc(OCCOC(=O)C(C)c4ccc(C(=O)c5ccccc5)cc4)c(OCCOC(=O)C(C)c4ccc(C(=O)c5ccccc5)cc4)cc23)c1` (stereo not shown) [Embodiment 17, 2,2′-(4-(3-ethynylaniline)quinazoline-6,7-diene)di(oxy)bis(ethyl-2,1-diene)-bis(2-(4-benzoylphenyl)propanoic acid)], for which the EC50 in assay [2] was determined as 1.5 µM.
Turning to `C#Cc1cccc(Nc2ncnc3cc(OCCOC(=O)C(C)c4ccc(CC(C)C)cc4)c(OCCOC)cc23)c1` (stereo not shown) [Embodiment 10, 2-(4-(3-ethynylaniline)-6-(2-methoxyethoxy)quinazoline-7-oxy)ethyl-2-(4-isobutylphenyl)propanoic acid], the EC50 in assay [1] worked out at 8.65 µM; in assay [2] it was 0.28 µM.
For the compound `C#Cc1cccc(Nc2ncnc3cc(OCCOC(=O)c4ccc(C(=O)Nc5ccc6c(c5)C(C)(C)CCC6(C)C)cc4)c(OCCOC(=O)c4ccc(C(=O)Nc5ccc6c(c5)C(C)(C)CCC6(C)C)cc4)cc23)c1` [Embodiment 24, 2,2′-(4-(3-ethynylaniline)quinazoline-6,7-diene)di(oxy)bis(ethyl-2,1-diene)-bis(4-(5,5,8,8-tetramethyl-5,6,7,8-tetralin-2-alkenylcarbamyl)benzoic acid)], the concentration giving a half-maximal response (EC50) in assay [1] amounted to 52.9 µM; in assay [2] it was 1.14 µM.
For the compound `C#Cc1cccc(Nc2ncnc3cc(OCCOC(=O)C(C)c4ccc(CC(C)C)cc4)c(OCCOC(=O)C(C)c4ccc(CC(C)C)cc4)cc23)c1` (stereo not shown) [Embodiment 18, 2,2′-(4-(3-ethynylaniline)quinazoline-6,7-diene)di(oxy)bis(ethyl-2,1-diene)-bis(2-(4-isobutylphenyl)propanoic acid)], in assay [1], the EC50 is 805 µM.
As to `C#Cc1cccc(Nc2ncnc3cc(OCCOC(=O)C(C)c4ccc5cc(OC)ccc5c4)c(OCCOC)cc23)c1` (stereo not shown) [Embodiment 13, 2-(4-(3-ethynylaniline)-6-(2-methoxyethoxy)quinazoline-7-oxy)ethyl-2-(6-methoxylnaphthyl-2-ene)propanoic acid], the EC50 in assay [1] came out at 27.2 µM; in assay [2], 0.09 µM.
On the same counts, the results for `C#Cc1cccc(Nc2ncnc3cc(OCCOC(=O)c4ccccc4OC(C)=O)c(OCCOC)cc23)c1` [Embodiment 11, 2-(4-(3-ethynylaniline)-6-(2-methoxyethoxy)quinazoline-7-oxy)ethyl-2-acetoxyl benzoic acid] are 13.8 µM and 0.13 µM.
On the same counts, the results for `C#Cc1cccc(Nc2ncnc3cc(OCCOC)c(OCCOC(=O)C4=Cc5cc(Cl)c(C(C)(C)C)cc5OC4C(F)(F)F)cc23)c1` (stereo not shown) [Embodiment 4] are 32.9 µM and 0.61 µM.
